Reference: ChEMBL document CHEMBL6103573, “Discovery of novel thienopyridine indole derivatives as inhibitors of tubulin polymerization targeting the colchicine-binding site with potent anticancer activities” (Eur J Med Chem, 2025)
The source made the active and inactive calls. No cut-off for these calls is given here.

Assays:
HUVEC [1] = assay: Anti-angiogenesis activity in HUVEC cells assessed as reduction in cell viability by measuring survival rate at 2 nmol/L incubated for 12 hrs by MTT assay relative to control; assay type: functional; conditions: Homo sapiens, read-out: Survival
Tubulin = assay: Inhibition of tubulin (unknown origin) polymerization assessed as decrease in fluorescence intensity in presence of GTP by fluorescence microplate reader; assay type: protein-complex assay, Homo sapiens
MGC-803 [2] = assay: Anti-migratory activity against human MGC-803 cells assessed as decrease in cell migration at 1 nmol/L measured after 24 hrs by wound healing assay relative to control; assay type: functional; design: scale not given: the % may be the effect or the level left
MGC-803 [3] = assay: Induction of apoptosis in human MGC-803 cells assessed as increase in cleaved Caspase-9 expression at 0.25 to 2.0 nmol/L incubated for 48 hrs by Western blotting analysis; assay type: functional, cell-based; conditions: dose 0.25-2 nmol/L
MGC-803 [4] = assay: Antiproliferative activity against human MGC-803 cells assessed as survival rate at 2 nmol/L measured after 6 hrs by MTT assay relative to control; assay type: functional; conditions: read-out: Survival
Huh-7 = assay: Antiproliferative activity against human Huh-7 cells assessed as inhibition of cell proliferation incubated for 48 hrs by MTT assay; assay type: functional, cell-based; conditions: Huh-7, 48 h
MGC-803 [5] = assay: Induction of apoptosis in human MGC-803 cells assessed as appearance of round cells at 0.25 to 2.0 nmol/L incubated for 48 hrs by bright field microscopic analysis; assay type: functional, cell-based; conditions: dose 0.25-2 nmol/L
HUVEC [6] = assay: Anti-vascular activity in HUVEC cells assessed as reduction in capillary-like tubules with multi-center junctions incubated for 5 hrs by Matrigel based inverted microscopic analysis; assay type: functional, cell-based; conditions: Homo sapiens, dose 0.5-2 nmol/L
HGC-27 [7] = assay: Induction of cell cycle arrest in human HGC-27 cells assessed as downregulation of Cdc2 phosphorylation at Tyr15 residue measured after 48 hrs by Western blot analysis; assay type: functional, cell-based; conditions: dose 0.25-2 nmol/L
Tubulin (Homo sapiens) = Tubulin (Homo sapiens) (UniProt P68371+Q9H4B7+P0DPH7+P68366+Q13509+Q71U36+P04350+Q3ZCM7+P07437+P68363+Q9BQE3+Q6PEY2+Q13885+Q9BVA1+Q9BUF5); assay: Disruption of microtubule network in human HGC-27 cells assessed as reduction in filamentous microtubule structure formation at 0.25 to 2.0 nmol/L incubated for 24 hrs by DAPI staining based fluorescence microscopic analysis; assay type: cell-based; conditions: dose 0.25-2 nmol/L
MDA-MB-231 = assay: Antiproliferative activity against human MDA-MB-231 cells assessed as inhibition of cell proliferation incubated for 48 hrs by MTT assay; assay type: functional, cell-based; conditions: MDA-MB-231, 48 h
[8] = biological target: T1, Tubulin beta (Homo sapiens) (UniProt P68371+Q9H4B7+Q13509+P04350+Q3ZCM7+P07437+Q13885+Q9BVA1+Q9BUF5+A6NNZ2); assay: (§1) Competitive binding affinity to beta-tubulin colchicine binding site in human HGC-27 cells assessed as inhibition of EBI-beta-tubulin adduct band formation at 1 umol/L preincubated for 2 hrs followed by EBI addition and measured after 2 hrs by Western blotting analysis; assay type: cell-based; conditions: dose 1.0 µmol/L, time 4.0 hrs
HGC-27 [9] = assay: Induction of apoptosis in human HGC-27 cells assessed as increase in nuclei brightness at 0.25 to 2.0 nmol/L incubated for 48 hrs by DAPI staining based analysis; assay type: functional, cell-based; conditions: dose 0.25-2 nmol/L
HGC-27 [10] = assay: Induction of apoptosis in human HGC-27 cells assessed as increase in cleaved Caspase-7 expression at 0.25 to 2.0 nmol/L incubated for 48 hrs by Western blotting analysis; assay type: functional, cell-based; conditions: dose 0.25-2 nmol/L
HGC-27 [11] = assay: Antiproliferative activity against human HGC-27 cells assessed as reduction in cell viability at 0.25 to 2.0 nmol/L by MTT assay; assay type: functional, cell-based; conditions: dose 0.25-2 nmol/L, time 6-48 hrs
MGC-803 [12] = assay: Antitumor activity against human MGC-803 cells xenografted in female BALB/c-nu nude mouse assessed as reduction in Ki67 expression in tumor at 5 mg/kg, po administrated […] for 11 times and measured after 21 days by immunohistochemical analysis; assay type: functional, organism-based; conditions: time 21.0 day
MGC-803 [13] = assay: Antiproliferative activity against human MGC-803 cells assessed as reduction in cell viability at 0.25 to 2.0 nmol/L by MTT assay; assay type: functional, cell-based; conditions: dose 0.25-2 nmol/L, time 6-48 hrs
MGC-803 [14] = assay: Induction of apoptosis in human MGC-803 cells assessed as cell contraction at 0.25 to 2.0 nmol/L incubated for 48 hrs by bright field microscopic analysis; assay type: functional, cell-based; conditions: dose 0.25-2 nmol/L
HGC-27 [15] = assay: Induction of apoptosis in human HGC-27 cells assessed as increase in cleaved PARP expression at 0.25 to 2.0 nmol/L incubated for 48 hrs by Western blotting analysis; assay type: functional, cell-based; conditions: dose 0.25-2 nmol/L
[16] = biological target: T1, Tubulin beta (Homo sapiens); assay: Competitive binding affinity to beta-tubulin colchicine binding site in human HGC-27 cells assessed as reduction in EBI-beat tubulin adduct to beta-tubulin ratio preincubated for 2 hrs followed by EBI addition and measured after 2 hrs by Western blotting analysis; assay type: cell-based; conditions: dose 0.1-1 µmol/L, time 4.0 hrs
MGC-803 [17] = assay: Antitumor activity against human MGC-803 cells xenografted in female BALB/c-nu nude mouse assessed as increase in cleaved PARP level in tumor at 5 mg/kg, po administrated […] for 11 times and measured after 21 days by immunohistochemical analysis; assay type: functional, organism-based; conditions: time 21.0 day
MGC-803 [18] = assay: Induction of apoptosis in human MGC-803 cells assessed as appearance of bright cells at 0.25 to 2.0 nmol/L incubated for 48 hrs by bright field microscopic analysis; assay type: functional, cell-based; conditions: dose 0.25-2 nmol/L
HGC-27 [19] = assay: Antiproliferative activity against human HGC-27 cells assessed as reduction in cell viability incubated for 48 hrs by MTT assay; assay type: functional, cell-based; conditions: dose 0.25-10 nmol/L
[20] = Toxicity in female BALB/c-nu nude mouse xenografted with human MGC-803 cells assessed as change in kidney morphology at 5 mg/kg, po administrated every other day for 11 times and measured after 21 days by hematoxylin and eosin staining based analysis; assay type: organism-based; conditions: in vivo, 504 h, time 21 day
MGC-803 [21] = assay: Antiproliferative activity against human MGC-803 cells assessed as cell viability at 1 to 2 nmol/L incubated for 48 hrs by MTT assay (reference value: 92 %); assay type: functional; conditions: dose 1-2 nmol/L, at 1 to 2 nM
MGC-803 [22] = assay: Induction of apoptosis in human MGC-803 cells assessed as increase in cleaved Caspase-3 expression at 0.25 to 2.0 nmol/L incubated for 48 hrs by Western blotting analysis; assay type: functional, cell-based; conditions: dose 0.25-2 nmol/L
MGC-803 [23] = assay: Induction of cell cycle arrest at G2 phase in human MGC-803 cells assessed as downregulation of Cyclin B1 level at 0.25 to 2.0 nmol/L measured after 48 hrs by Western blot analysis; assay type: functional, cell-based; conditions: dose 0.25-2 nmol/L
[24] = biological target: T1, Tubulin beta (Homo sapiens); assay: as §1, with “MGC-803” for “HGC-27”, “by measuring reduction in adduct band intensity” for “at 1 umol/L”; assay type: cell-based; conditions: dose 0.1-1 µmol/L, time 4.0 hrs
HUVEC [25] = assay: Anti-migratory activity against HUVEC cells assessed as wound healing rate at 0.5 nmol/L measured after 24 hrs by wound healing assay (reference value: 97 %); assay type: functional, Homo sapiens
MGC-803 [26] = assay: Induction of apoptosis in human MGC-803 cells assessed as early apoptotic cells at 1.0 nmol/L incubated for 48 hrs by Annexin V-FITC/propidium iodide staining based flow cytometry analysis (reference value: 0.83 %); assay type: functional
MGC-803 [27] = assay: Induction of apoptosis in human MGC-803 cells assessed as increase in dead to live cells ratio at 0.25 to 2.0 nmol/L incubated for 48 hrs by Calcein-AM/PI staining based analysis; assay type: functional, cell-based; conditions: dose 0.25-2 nmol/L

`CN(c1ccc2c(ccn2C)c1)c1nc(N2CCCC2)nc2sccc12` showed a viability at 0.002 µM (HUVEC [1]) of 75.6%, an IC50 (Tubulin) of 2510 nM and an Activity (MGC-803 [2]) of 24%. The Activity (MGC-803 [3]) was “Active”, the viability at 0.002 µM (MGC-803 [4]) was 86% and the IC50 (Huh-7) was 2.09 nM. For the same molecule, the Activity (MGC-803 [5]) was “Active”, the Activity (HUVEC [6]) was “Dose-dependent-effect” and the Activity (HGC-27 [7]) was “Dose-dependent-effect”. The Activity (Tubulin (Homo sapiens)) was “Active”, the IC50 (MDA-MB-231) was 2.58 nM and the Activity [8] was “Active; Stronger Affinity Observed”. The Activity (HGC-27 [9]) was “Active”, the Activity (HGC-27 [10]) was “Active” and the Activity (HGC-27 [11]) was “Time-dependent-effect”. The Activity (MGC-803 [12]) was “Active”, the Activity (MGC-803 [13]) was “Time-dependent-effect” and the Activity (MGC-803 [14]) was “Active”. The Activity (HGC-27 [15]) was “Active”, the Activity [16] was “Dose-dependent-effect” and the Activity (MGC-803 [17]) was “Active”. For the same molecule, the Activity (MGC-803 [18]) was “Active”, the Activity (HGC-27 [19]) was “Dose-dependent-effect” and the Activity [20] was “Non-toxic”. For the same molecule, the Activity (MGC-803 [21]) was 39%, the Activity (MGC-803 [22]) was “Active” and the Activity (MGC-803 [23]) was “Active”. For the same molecule, the Activity [24] was “Dose-dependent-effect”, the Activity (HUVEC [25]) was 82% and the Activity (MGC-803 [26]) was 16.83%. The Activity (MGC-803 [27]) was “Active”.
